This is an account of results in ChEMBL document CHEMBL1146003, “Synthesis of 13-(substituted benzyl) berberine and berberrubine derivatives as antifungal agents” (2006).

Holding throughout (assay type): functional
In test [1] the test system is Cryptococcus neoformans. As to the kind of experiment: Antifungal activity against Cryptococcus neoformans ATCC 36556 by broth microdilution method.
Test [2] relates to Aspergillus fumigatus. As to the kind of experiment: Antifungal activity against Aspergillus fumigatus ATCC 16424 by broth microdilution method. On the technique in general: Dilution methods test growth across graded concentrations, often in twofold steps.
For test [3], the system named is Candida tropicalis. As to the kind of experiment: Antifungal activity against Candida tropicalis ATCC 13803 by broth microdilution method.
Test [4] deals with Clavispora lusitaniae. The experiment in a line: Antifungal activity against Candida lusitaniae ATCC 42720 by broth microdilution method.
For test [5], the system named is Pichia kudriavzevii. As to the kind of experiment: Antifungal activity against Candida krusei ATCC 6258 by broth microdilution method.
Test [6] deals with Aspergillus terreus. The experiment in a line: Antifungal activity against Aspergillus terreus ATCC 46941 by broth microdilution method.
The subject of test [7] is Candida albicans. The experiment in a line: Antifungal activity against Candida albicans ATCC 10231 by broth microdilution method.

Values after ≈ are worked out from the molar mass of the structure shown.

In the case of `COc1cc(Cc2c3[n+](cc4c(OC)c(OC)ccc24)CCc2cc4c(cc2-3)OCO4)cc(OC)c1OC.[Cl-]`, the MIC (as a rule, the lowest concentration that inhibits growth of the organism) in test [1] is 32 µg/mL; in test [2], greater than 128 µg/mL; in test [3], 64 µg/mL; in test [4] it was 128 µg/mL; in test [5], 64 µg/mL; in test [6] it was greater than 128 µg/mL. The same compound had an MIC in test [7] of 128 µg/mL.

Turning to `COc1ccc2cc3[n+](cc2c1OC)CCc1cc2c(cc1-3)OCO2.[Cl-]` [BERBERINE CHLORIDE], the minimum inhibitory concentration (MIC) in test [1] is 64 µg/mL; in test [2] it was greater than 128 µg/mL; in test [3], 16 µg/mL; in test [4], greater than 128 µg/mL; in test [5], 32 µg/mL; in test [6], greater than 128 µg/mL. This compound also showed a minimal inhibitory concentration (MIC) in test [7] of 128 µg/mL.

Regarding `COc1ccc2c(Cc3cc(F)cc(F)c3)c3[n+](cc2c1O)CCc1cc2c(cc1-3)OCO2.[Cl-]`, the minimal inhibitory concentration (MIC) in test [1] is 32 µg/mL; in test [2] it was greater than 128 µg/mL; in test [3], 128 µg/mL; in test [4], 128 µg/mL; in test [5], 128 µg/mL; in test [6], greater than 128 µg/mL. Moreover, in test [7], the minimal inhibitory concentration (MIC) is greater than 128 µg/mL.

In the case of `COc1ccc2c(Cc3ccc(C(F)(F)F)cc3)c3[n+](cc2c1OC)CCc1cc2c(cc1-3)OCO2.[Cl-]`, the MIC was 16 µg/mL in test [1]; greater than 128 µg/mL in test [2]; 16 µg/mL in test [3]; 32 µg/mL in test [4]; 32 µg/mL in test [5]; greater than 128 µg/mL in test [6]. The minimal inhibitory concentration (MIC) in test [7] came out at 32 µg/mL.

With `COc1ccc2cc3[n+](cc2c1O)CCc1cc2c(cc1-3)OCO2` [BERBERRUBINE], the MIC is greater than 128 µg/mL in test [1]; greater than 128 µg/mL in test [2]; 128 µg/mL in test [3]; greater than 128 µg/mL in test [4]; greater than 128 µg/mL in test [5]; greater than 128 µg/mL in test [6]. In test [7], this compound gave an MIC greater than 128 µg/mL.

On to `COc1ccc2c(Cc3ccc(C(C)(C)C)cc3)c3[n+](cc2c1O)CCc1cc2c(cc1-3)OCO2.[Cl-]`, for which the MIC in test [1] was 8 µg/mL; in test [2], greater than 128 µg/mL; in test [3], 16 µg/mL; in test [4] it was 8 µg/mL; in test [5] it was 32 µg/mL; in test [6], greater than 128 µg/mL. 16 µg/mL was the least that counted as inhibitory in test [7] (MIC).

Turning to `C[C@@H]1[C@H](O)[C@@H](C)/C=C/C=C/C=C/C=C/C=C/C=C/C=C/[C@H](O[C@@H]2O[C@H](C)[C@@H](O)[C@H](N)[C@@H]2O)C[C@@H]2O[C@](O)(C[C@@H](O)C[C@@H](O)[C@H](O)CC[C@@H](O)C[C@@H](O)CC(=O)O[C@H]1C)C[C@H](O)[C@H]2C(=O)O` [AMPHOTERICIN B], the MIC in test [1] is 0.25 µg/mL (≈ 0.271 µM); in test [2] it was 1 µg/mL (≈ 1.08 µM); in test [3], 0.5 µg/mL (≈ 0.541 µM); in test [4] it was 1 µg/mL (≈ 1.08 µM); in test [5], 0.5 µg/mL (≈ 0.541 µM); in test [6], 16 µg/mL (≈ 17.3 µM). In test [7], this compound showed a minimal inhibitory concentration (MIC) of 0.5 µg/mL (≈ 0.541 µM).

Regarding `COc1ccc2c(Cc3cc(F)c(F)c(F)c3)c3[n+](cc2c1OC)CCc1cc2c(cc1-3)OCO2.[Cl-]`, the MIC is 64 µg/mL in test [1]; greater than 128 µg/mL in test [2]; 64 µg/mL in test [3]; 128 µg/mL in test [4]; 64 µg/mL in test [5]; greater than 128 µg/mL in test [6]. In test [7], this compound showed an MIC of 128 µg/mL.

Consider `COc1ccc2c(Cc3ccc(OC(F)(F)F)cc3)c3[n+](cc2c1O)CCc1cc2c(cc1-3)OCO2.[Cl-]`, for which the MIC is 16 µg/mL in test [1]; greater than 128 µg/mL in test [2]; 32 µg/mL in test [3]; 32 µg/mL in test [4]; 32 µg/mL in test [5]; greater than 128 µg/mL in test [6]. The same compound had a minimal inhibitory concentration (MIC) in test [7] of 64 µg/mL.

Consider `COc1ccc2c(Cc3ccc(C(C)C)cc3)c3[n+](cc2c1O)CCc1cc2c(cc1-3)OCO2.[Cl-]`, for which the MIC was 4 µg/mL in test [1]; greater than 128 µg/mL in test [2]; 16 µg/mL in test [3]; 8 µg/mL in test [4]; 16 µg/mL in test [5]; greater than 128 µg/mL in test [6]. In test [7], this compound gave a minimum inhibitory concentration (MIC) of 16 µg/mL.

As for `COc1ccc2c(Cc3cc(F)c(F)c(F)c3)c3[n+](cc2c1O)CCc1cc2c(cc1-3)OCO2.[Cl-]`, the MIC was 64 µg/mL in test [1]; greater than 128 µg/mL in test [2]; 128 µg/mL in test [3]; 128 µg/mL in test [4]; 128 µg/mL in test [5]; greater than 128 µg/mL in test [6]. The same compound showed an MIC in test [7] greater than 128 µg/mL.

Regarding `COc1ccc2c(Cc3cc(F)cc(F)c3)c3[n+](cc2c1OC)CCc1cc2c(cc1-3)OCO2.[Cl-]`, the MIC in test [1] was 32 µg/mL; in test [2], greater than 128 µg/mL; in test [3] it was 32 µg/mL; in test [4] it was 64 µg/mL; in test [5], 64 µg/mL; in test [6], greater than 128 µg/mL. The same compound showed a minimum inhibitory concentration (MIC) in test [7] of 128 µg/mL.

For `COc1ccc2c(Cc3ccc(C(C)(C)C)cc3)c3[n+](cc2c1OC)CCc1cc2c(cc1-3)OCO2.[Cl-]`, the MIC in test [1] was found to be 4 µg/mL; in test [2], 64 µg/mL; in test [3] it was 2 µg/mL; in test [4] it was 8 µg/mL; in test [5], 8 µg/mL; in test [6], 64 µg/mL. Besides, in test [7], the lowest concentration to inhibit growth (MIC) was 4 µg/mL.

Take `COc1ccc2c(Cc3ccc(C(C)C)cc3)c3[n+](cc2c1OC)CCc1cc2c(cc1-3)OCO2.[Cl-]`: the minimal inhibitory concentration (MIC) in test [1] was found to be 4 µg/mL; in test [2] it was 64 µg/mL; in test [3], 1 µg/mL; in test [4], 8 µg/mL; in test [5] it was 4 µg/mL; in test [6] it was 32 µg/mL. The same compound displayed an MIC in test [7] of 4 µg/mL.

Turning to `COc1ccc2c(Cc3ccc(C(F)(F)F)cc3)c3[n+](cc2c1O)CCc1cc2c(cc1-3)OCO2.[Cl-]`, the MIC in test [1] is 16 µg/mL; in test [2], greater than 128 µg/mL; in test [3], 64 µg/mL; in test [4] it was 64 µg/mL; in test [5], 64 µg/mL; in test [6], greater than 128 µg/mL. Also, the MIC in test [7] is 128 µg/mL.

Take `COc1cc(Cc2c3[n+](cc4c(O)c(OC)ccc24)CCc2cc4c(cc2-3)OCO4)cc(OC)c1OC.[Cl-]`: the minimal inhibitory concentration (MIC) in test [1] was 32 µg/mL; in test [2], greater than 128 µg/mL; in test [3], 128 µg/mL; in test [4], 128 µg/mL; in test [5], greater than 128 µg/mL; in test [6] it was greater than 128 µg/mL. For the same compound, the minimal inhibitory concentration (MIC) in test [7] was greater than 128 µg/mL.

Regarding `COc1ccc2c(Cc3ccc(OC(F)(F)F)cc3)c3[n+](cc2c1OC)CCc1cc2c(cc1-3)OCO2.[Cl-]`, the minimal inhibitory concentration (MIC) in test [1] was 16 µg/mL; in test [2], greater than 128 µg/mL; in test [3], 8 µg/mL; in test [4], 32 µg/mL; in test [5], 16 µg/mL; in test [6] it was greater than 128 µg/mL. Further, inhibition of growth in test [7] (MIC) required 16 µg/mL.
